# Patent US20030157040A1, “Use of ectoine or ectoine derivatives in cosmetic formulations” (Merck Patent GmbH, priority 1998, published 2003)
# Values joined by “and” are separate entries in the source; they are usually repeats but may differ in a detail not shown here. Identical values can stand only once. “Also recorded” adds a separate entry of the source.
# System: organotypical skin equivalents (Skinethic)
# Assay: UV-induced formation of "sunburn cells" in organotypical skin equivalents
# Type: cell-based
# Settings: for Number of counted "sunburn cells" in individual sections of the UV-irradiated skin equivalents / Number of counted "sunburn cells", mean M of six sections: pretreatment 24 h with ectoin 4%; for Number of counted "sunburn cells" in individual sections of the UV-irradiated skin equivalents: individual section
# Method: An investigation is carried-out to determine whether ectoin has an inhibiting action on the UV-induced formation of “sunburn cells” in organotypical skin equivalents.
# The investigations are carried out in accordance with the method described in A. R. Young, ‘The sunburn cell’, Photodermatology 4 (1987) 127-134. The cells used are organotypical skin models. Skinethic® skin equivalents from Skinethic, Nice, France (Lot. No. PK 2 DT 07 99 022A 0603) are used. Ectoin is weighed in directly prior to the start of the test and dissolved in the use concentration of 4% in EBSS (Gibco BRL; Order No. 15015 044). The organotypical skin equivalents (Skinethic) are, depending on the treatment group, incubated for 24 hours with or without ectoin (4%) at 37° C. and 5% CO2. The two treatment groups are then subjected to UV irradiation (0, 30, 60, 100, 200, 300 mJ/cm^2 of UVB) using a sun simulator (SOL 500, Dr. Hönle). Following incubation for a further 24 hours at 37° C. and 5% CO2, all skin equivalents are prepared histologically and investigated for induced “sunburn cells”.
compound,measurement,setting,value
"CC1=N[C@H](C(=O)O)CCN1 [ectoin, (S)-1,4,5,6-tetrahydro-2-methyl-4-pyrimidine-carboxylic acid]","Number of counted ""sunburn cells"" in individual sections of the UV-irradiated skin equivalents",irradiation 0 mJ/cm^2 UVB,0
same,"Number of counted ""sunburn cells"", mean M of six sections","irradiation 0 mJ/cm^2 UVB, mean of six sections",0.00
same,"Number of counted ""sunburn cells"" in individual sections of the UV-irradiated skin equivalents",irradiation 30 mJ/cm^2 UVB,1 (2×) and 2 (2×) and 3 and 0
same,"Number of counted ""sunburn cells"", mean M of six sections","irradiation 30 mJ/cm^2 UVB, mean of six sections",1.50
same,"Number of counted ""sunburn cells"" in individual sections of the UV-irradiated skin equivalents",irradiation 60 mJ/cm^2 UVB,2 (2×) and 4 and 3 (3×)
same,"Number of counted ""sunburn cells"", mean M of six sections","irradiation 60 mJ/cm^2 UVB, mean of six sections (per section)",2.83±0.75 and 2.83
same,"Number of counted ""sunburn cells"" in individual sections of the UV-irradiated skin equivalents",irradiation 100 mJ/cm^2 UVB,9 (2×) and 10 (2×) and 8 (2×)
same,"Number of counted ""sunburn cells"", mean M of six sections","irradiation 100 mJ/cm^2 UVB, mean of six sections (per section)",9±0.89 and 9.00
same,"Number of counted ""sunburn cells"" in individual sections of the UV-irradiated skin equivalents",irradiation 200 mJ/cm^2 UVB,39 (2×) and 32 (2×) and 35 and 34
same,"Number of counted ""sunburn cells"", mean M of six sections","irradiation 200 mJ/cm^2 UVB, mean of six sections (per section)",35.17±3.19 and 35.17
same,"Number of counted ""sunburn cells"" in individual sections of the UV-irradiated skin equivalents",irradiation 300 mJ/cm^2 UVB,>100 (5×) and <100
same,"Number of counted ""sunburn cells"", mean M of six sections","irradiation 300 mJ/cm^2 UVB, mean of six sections",>100
same,dose-effect relationship between the rate of formation of SBCs and the administered UV dose,"pretreatment with ectoin versus no pretreatment, 0-300 mJ/cm^2 UVB",shifted significantly to higher UV dose ranges; also recorded: significantly into higher UV dose ranges
